{"source": "patent US5972899A", "about": "“Apoptosis induced by Shigella IpaB” (New York University, priority 1996, dated 1999)", "tested_on": "J774 cells infected with S. flexneri M90T", "assay": "LDH release cytotoxicity assay, J774 cells infected with S. flexneri M90T", "type": "cell-based, murine", "procedure": "In the studies the results of which are shown in FIG. 5, 2×10^4 J774 or peritoneal macrophage cells were seeded onto 96-well plates 18 hours before infection with M90T at a multiplicity of infection of 25 bacteria per cell (Clerc, P. L. et al., supra). Two hours after infection, supernatants of the infected macrophages were assayed for LDH using the Cytotox96® kit (Promega) according to the manufacture's instructions. The percent cytotoxicity was calculated as: [formula] where spontaneous release is the amount of LDH activity in supernatants of cells not infected and total release is the LDH activity in macrophage lysates. ICE inhibitor was added 1 h before infection at a concentration of 25 μg/ml."}
{"smiles": "CC(=O)N[C@@H](Cc1ccc(O)cc1)C(=O)N[C@H](C(=O)N[C@@H](C)C(=O)N[C@H](C=O)CC(=O)O)C(C)C", "note": "[Ac-YVAD-CHO]", "values": [{"measurement": "inhibition at 25 µg/mL", "setting": "Mus musculus, ICE inhibitor 25 μg/ml added 1 h before infection, M90T at 25 bacteria per cell, LDH release 2 h after infection, read-out: inhibition of S. flexneri-induced cell death", "result": 81.5, "unit": "%"}, {"measurement": "reversibility of the inhibition of cell death", "setting": "inhibitor washed away (FIG. 5)", "result": "reversed by washing away the inhibitor"}]}
